Data published in patent US8410081B2, “Treatment of cystic fibrosis” (Academisch Medisch Centrum, priority 2006, dated 2013).

Key:
[1] = target: T1, glucosylceramide synthase (GCS) (Homo sapiens, UniProt Q16739); assay: glucosylceramide synthase (GCS) IC50 determination; format: biochemical; conditions: for IC50: enzyme preparations exposed to dilutions of inhibitor
T1 sequence (Q16739 1-394): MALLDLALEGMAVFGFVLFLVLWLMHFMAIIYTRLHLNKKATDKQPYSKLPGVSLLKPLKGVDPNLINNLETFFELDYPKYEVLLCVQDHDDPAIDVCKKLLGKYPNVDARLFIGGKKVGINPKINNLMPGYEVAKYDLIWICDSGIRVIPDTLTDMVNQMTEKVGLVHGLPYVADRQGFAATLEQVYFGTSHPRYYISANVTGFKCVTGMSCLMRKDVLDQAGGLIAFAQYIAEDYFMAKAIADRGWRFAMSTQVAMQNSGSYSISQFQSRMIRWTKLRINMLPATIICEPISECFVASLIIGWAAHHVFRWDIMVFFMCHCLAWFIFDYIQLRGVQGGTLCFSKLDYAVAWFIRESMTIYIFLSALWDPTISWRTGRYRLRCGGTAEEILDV

[2] = target: T2, GBA2 (non-lysosomal glucosylceramidase) (Homo sapiens, UniProt Q9HCG7); assay: non-lysosomal glucosylceramidase (GBA2) IC50 determination; format: biochemical; conditions: enzyme preparations exposed to dilutions of inhibitor
T2 construct: host or cells: GBA2 containing membranes
T2 sequence (Q9HCG7 1-927): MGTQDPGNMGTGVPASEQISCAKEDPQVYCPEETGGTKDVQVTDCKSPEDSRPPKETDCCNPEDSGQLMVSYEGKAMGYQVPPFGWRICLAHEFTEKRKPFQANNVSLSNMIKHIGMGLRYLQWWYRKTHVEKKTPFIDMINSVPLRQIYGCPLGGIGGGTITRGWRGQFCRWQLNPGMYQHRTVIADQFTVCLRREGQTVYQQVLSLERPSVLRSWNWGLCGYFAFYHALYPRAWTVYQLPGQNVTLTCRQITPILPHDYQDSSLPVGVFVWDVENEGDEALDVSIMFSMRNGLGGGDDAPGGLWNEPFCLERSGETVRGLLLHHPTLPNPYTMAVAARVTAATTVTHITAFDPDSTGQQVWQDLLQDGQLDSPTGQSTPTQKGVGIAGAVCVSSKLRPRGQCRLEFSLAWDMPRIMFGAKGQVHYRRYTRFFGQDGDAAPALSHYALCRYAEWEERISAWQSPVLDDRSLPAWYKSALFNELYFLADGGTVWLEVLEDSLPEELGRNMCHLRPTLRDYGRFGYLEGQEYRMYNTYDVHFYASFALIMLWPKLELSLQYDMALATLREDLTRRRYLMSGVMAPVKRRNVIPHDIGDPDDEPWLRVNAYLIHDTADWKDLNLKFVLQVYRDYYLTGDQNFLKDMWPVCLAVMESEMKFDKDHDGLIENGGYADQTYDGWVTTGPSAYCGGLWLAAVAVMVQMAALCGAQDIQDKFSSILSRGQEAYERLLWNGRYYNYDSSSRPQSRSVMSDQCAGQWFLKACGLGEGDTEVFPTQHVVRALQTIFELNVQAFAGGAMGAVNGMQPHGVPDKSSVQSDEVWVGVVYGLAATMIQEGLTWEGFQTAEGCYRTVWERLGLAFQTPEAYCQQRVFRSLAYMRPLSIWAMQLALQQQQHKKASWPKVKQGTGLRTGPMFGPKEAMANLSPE

[3] = tested on: delF508-CFTR in ileal mucosa; assay: intestine explants from ileal mucosa of delF508 mice (short-circuit current, Western blot, immunohistochemistry); conditions: 10 nM
Description: To test the therapeutic potential of GBA2 inhibitors for CF further the effects of AMP-DNM on intestine explants from ileal mucosa of delF508 mice were analysed. The following assay was used:
Rotterdam delF508/delF508-CFTR mice (Cfr^tm1 Eur), their littermate controls (FVB inbred, 14-17 weeks old, weight between 20 and 30 g, kept on solid food in a pathogen-free environment) and Cftr-KO mice (Cftr^tm2 Cam) were used. Muscle-stripped ileal mucosa was incubated in William's E-Glutamax medium supplemented with insulin (10 μg/ml) and dexamethasone (20 μg/ml). At different time points, the compound was removed by repeated washings followed by short-circuit current (Isc) measurements in mini-Ussing chambers. Western blotting was as performed and immunoblots were probed with monoclonal mouse anti-CFTR antibody (10 μg/ml, IgG1 M3A7, Chemicon, USA). The protein levels were expressed as densitometry and percentage of controls. For immunohistochemistry, tissues were fixed in 4% (wt/vol) paraformaldehyde. Sections (5 μm) were stained with the antibody R3195 (1:500).

[4] = tested on: delF508-CFTR containing epithelial CF cells (CF15); assay: cAMP-activated chloride current, perforated whole-cell patch-clamp / iodide efflux in CF15 cells; format: cell-based, human; conditions: 10 nM; del F508-CFTR containing epithelial CF cells
Description: The effects of AMP-DNM on cAMP-activated chloride current in delF508-CFTR containing epithelial CF cells were studied with the following assay:
Perforated whole-cell patch-clamp analysis was applied to CF15 cells (human nasal epithelial cell line obtained from delF508 homozygous patient). Patch electrodes (GC150-TF10, Harvard Apparatus, USA) filled with intracellular solution (resistances of 3-4 MΩ) were connected to the RK-400 amplifier (Biologic, France) through an Ag/AgCl pellet. External solution (mM): 145 NaCl, 4 CsCl, 1 MgCl2, 1 CaCl2, 5 d-glucose, 10 TES (pH 7.4, 315 mOsm). Intra-pipette solution (mM): 113 l-aspartic acid, 113 CsOH, 27 CsCl, 1 NaCl, 1 EGTA, 1 MgCl2, 3 Mg-ATP (ex-temporane), 10 TES (pH 7.2 with CsOH, 285 mOsm) and amphotericin B (100 μg/ml) renewed every 2 h. Only cells with input resistance […] were analysed. The mean access resistance and whole cell capacitance were 12±0.6 MΩ and 35±4.3 pF (n=44). Currents were obtained in response to voltage steps from −80 to +80 mV in 20 mV increment. Data were collected using pClamp 6.0.3 package software (Axon Instruments, USA). CFTR Cl^− channel activity was assayed on a cell population by the iodide (^125I) efflux technique.

IC50 [1] | IC50 [2] | inhibition of GCS (in words) [1] | Structure (SMILES) | rescue of delF508-CFTR in intestinal crypts of ileal mucosa [3] | restoration of cAMP-activated chloride current, % of normal levels [4]
10 µM | 0.002 µM | – | OC[C@@H]1[C@@H](O)[C@H](O)[C@@H](O)CN1CCCCOCC12CC3CC(CC(C3)C1)C2 [N-[5′-(adamantan-1′-yl-methoxy)-butan]-1-deoxynojirimycin] | – | –
7.5 µM | 0.001 µM | – | OC[C@@H]1[C@@H](O)[C@H](O)[C@@H](O)CN1CCCCCCC12CC3CC(CC(C3)C1)C2 [N-[6′-adamantyl-hexan]-1-deoxynojirimycin] | – | –
> 100 µM | – | hardly inhibits GCS | CC(C)(C)COCCCCCN1C[C@H](O)[C@@H](O)[C@H](O)[C@H]1CO [N-[5′-neopentyloxy-pentan]-1-deoxynojirimycin] | – | –
– | – | – | OC[C@@H]1[C@@H](O)[C@H](O)[C@@H](O)CN1CCCCCOCC12CC3CC(CC(C3)C1)C2 [AMP-DNM, N-[5′-(adamantan-1′-yl-methoxy)-pentan]-1-deoxynojirimycin] | rescues a mature and functional delF508-CFTR | up to 30%
